Like-named read-outs stand apart in the source and are kept apart here.
Key:
[1] = Bioavailability / pharmacokinetic study in male rats (IV and PO); format: in vivo; conditions: rat; for Vd: read-out: Vdss
Description: Example 14 is a prodrug form of Example 1. Examples 19 to 22 and 24 to 26 are prodrugs of example 18. […] Example 19 was formulated in 0.9% w/v saline pH 4 (adjusted with 1 M HCl) for IV dosing. The formulation was dosed at 2 mg/kg by femoral catheter to two male rats each (170-250 g). Jugular vein catheter serial blood samples were taken at 0.033, 0.083, 0.167, 0.5, 1, 2, 4, 8, and 24 hrs post-dose. For PO dosing, Example 19 was formulated in deionized water pH 4 (adjusted with 1 M HCl) and dosed at 5 mg/kg by oral gavage to two male rats each (170-250 g). Serial blood samples were taken by jugular vein catheter at 0.25, 0.5, 1, 1.5, 2, 3, 4, 8, and 24 hrs post dose. Plasma samples were generated from blood using low speed centrifugation. A single set of calibration standards containing Example 18 and Example 19 were prepared by spiking blank plasma. The samples and standards were extracted by precipitation with two volumes of acetonitrile followed by centrifugation. The results obtained were used to determine the Cl (mL/min/kg), Vdss (L/kg), Cmax (μM), AUC (μM h), tmax (h), and % F for both Example 18 and Example 19. Absolute bioavailability was determined by comparing the PO dose normalized AUC of Example 18 when dosed as Example 19, versus the dose normalized IV AUC of Example 18 when dosed as Example 18. Where appropriate, measured, not nominal, doses were used in the calculation. In an analogous fashion, the same procedure was repeated for Examples 14, 20 to 22, and 24 to 26.

[2] = target: T1, Human Arginase 2 (Homo sapiens, UniProt P78540); test: Human Arginase 2 enzyme inhibition (thioarginine/DTNB absorbance at 412 nm); format: biochemical; conditions: recombinant enzyme 5 nM, 60 min, room temperature
T1 construct: made in house; host or cells: E. coli
T1 sequence (P78540 23-354): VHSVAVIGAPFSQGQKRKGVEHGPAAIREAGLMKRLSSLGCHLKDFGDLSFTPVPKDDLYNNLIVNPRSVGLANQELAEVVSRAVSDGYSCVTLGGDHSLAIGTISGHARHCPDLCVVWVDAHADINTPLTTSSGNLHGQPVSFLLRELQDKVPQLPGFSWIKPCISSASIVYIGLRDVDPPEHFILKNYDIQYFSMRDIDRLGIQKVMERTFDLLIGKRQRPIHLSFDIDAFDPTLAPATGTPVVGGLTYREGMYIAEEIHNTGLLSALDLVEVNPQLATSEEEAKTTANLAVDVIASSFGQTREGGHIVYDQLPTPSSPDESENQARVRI
From the text: (§1) The inhibitory effects of Examples 1-26 on the activity of Human Arginase 1 and Arginase 2 activity were quantified by measuring the formation of the thiol group from thioarginine using recombinant Arginase 1 or Arginase 2 produced from E. coli. The thiol group was detected with Ellman's reagent, 5,5′-dithiobis(2-nitrobenzoic acid) (DTNB). DTNB reacts with the thiol to give the mixed disulfide and 2-nitro-5-thiobenzoic acid (TNB) which is quantified by the absorbance of the anion (TNB^2−) at 412 nm.
(§2) The assays were run in clear 384 well plates (Greiner cat no: 781101). Various concentrations of Examples 1-26 in 300 nL DMSO were dispensed to assay plates using an Echo acoustic dispenser immediately followed by plate sealing and centrifugation. Two pre-mixes were prepared from reagents thawed immediately before addition to assay plates. Pre-mix one comprised human Arginase 1 or human Arginase 2, at a final concentration of 5 nM and 0.5 mM DTNB in assay buffer, 45 mM HEPES pH7.5, brij 35, 0.045% (w/v) and 100 μM MnCl2. Pre-mix two comprised freshly thawed 0.5 mM thioarginine in assay buffer. Fifteen microlitres of pre-mix one was dispensed to assay plates containing Examples 1-9, centrifuged and incubated for 30 minutes at room temperature prior to adding fifteen microlitres of pre-mix two.
(§3) Assay plates were centrifuged prior to reading absorbance at 412 nm in a Pherastar multi-mode plate reader to collect data at time point 0 (T0). The plates were incubated at room temperature for 60 min prior to reading again to collect data at time point 1 (T1). Data is derived by subtracting the A412 signal measured at T0 (time point 0) from that measured at T1 (time point 1). The data was transformed to % effect using the equation:
(§4) Compound % effect=100*[(X−min)/(max−min)],
(§5) where X represents the normalized value for the compound based on the Min (vehicle) and Max (reference compound) inhibition control.
(§6) The concentration of Examples 1-26 that inhibited the activity by 50% (i.e.the IC50) was calculated by plotting the % effect versus test compound concentration and fitting the data using the Genedata Screener Smart fit algorithm.

[3] = target: T2, Human Arginase 1 (Homo sapiens, UniProt P05089); test: Human Arginase 1 enzyme inhibition (thioarginine/DTNB absorbance at 412 nm); format: biochemical; conditions: recombinant enzyme 5 nM, 60 min, room temperature
T2 construct: made in house; host or cells: E. coli
T2 sequence (P05089 1-322): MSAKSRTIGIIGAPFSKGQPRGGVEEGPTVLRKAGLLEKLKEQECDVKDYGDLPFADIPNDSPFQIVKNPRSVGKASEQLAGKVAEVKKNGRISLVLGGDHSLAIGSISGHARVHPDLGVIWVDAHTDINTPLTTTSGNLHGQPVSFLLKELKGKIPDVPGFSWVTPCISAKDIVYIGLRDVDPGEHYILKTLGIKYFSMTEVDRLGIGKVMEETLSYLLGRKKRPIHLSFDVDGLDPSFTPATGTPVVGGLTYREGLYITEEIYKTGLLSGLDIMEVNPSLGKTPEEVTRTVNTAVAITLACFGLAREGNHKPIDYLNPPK
From the text: as §1, §2, §3, §4, §5, §6

[4] = pro-drug in plasma when dosed as pro-drug, IV 2 mg/kg
[5] = pro-drug in plasma when dosed as pro-drug, PO 5 mg/kg
[6] = plasma, payload when dosed as payload, IV

| SMILES | bioavailability ([1]; plasma, 5 mg/kg, pro-drug when dosed as pro-drug, PO vs IV) [%] | clearance [1, 4] [mL/min/kg] | Vd [1, 4] [L/kg] | AUC [1, 5] [µM·h] | Cmax [1, 5] [nM] | Tmax [1, 5] [h] | IC50 [2] [nM] | IC50 [3] [nM] | clearance [1, 6] [mL/min/kg] | Vd [1, 6] [L/kg] |
| --- | --- | --- | --- | --- | --- | --- | --- | --- | --- | --- |
| CC[C@H](C)[C@H](N)C(=O)NC[C@H](CCCB(O)O)[C@H](N)C(=O)O [Example 22, (2S,3S)-2-amino-3-(((2S,3S)-2-amino-3-methylpentanamido)methyl)-6-boronohexanoic acid] | 4.5 | 13.1 | 0.2 | 0.92 | 450 | 1 | 100 | 49 | – | – |
| NC[C@@H](CCCB(O)O)[C@H](N)C(=O)O [Example 1, (2S,3R)-2-amino-3-(aminomethyl)-6-boronohexanoic acid] | – | – | – | – | – | – | 81 | 39 | 8.26 | 0.46 |
